From PMC8634693 (European Journal of Medicinal Chemistry, 2021)
“Also recorded” adds a separate entry of the source.

Experiments:
SARS-CoV-2 3CL^pro [1] = target: T1, SARS-CoV-2 3CL^pro (Severe acute respiratory syndrome coronavirus 2, UniProt P0DTD1); type: biochemical
SARS-CoV-2 3CL^pro [2] = target: T1, SARS-CoV-2 3CL^pro; type: biochemical; remark: listed apart in the source
[3] = Gastrointestinal stability in simulated gastric fluid; type: in vitro ADME; settings: 20 μM, 37 °C, in 90 min
[4] = Plasma stability in human plasma; type: in vitro ADME; settings: 37 °C, up to 12 h
[5] = Phase I metabolic stability in human liver microsomes
[6] = Phase II metabolic stability; settings: human liver microsomes, in the presence of UDPGA

Row | Structure (SMILES) | inhibitory activity against SARS-CoV-2 3CLpro, in words (SARS-CoV-2 3CL^pro [1]) | other results
1 | CC(=O)OCC1Cc2c(-c3ccccn3)ccc(C)c2-c2c(O)ccc(C)c21 (stereo not shown) [Compound A8] | significant loss of potency | 
2 | COc1ccc(-c2ccccn2)c2c1-c1c(O)ccc(C)c1C(COC(C)=O)C2 (stereo not shown) [Compound A9] | significant loss of potency | 
3 | CC(=O)OCC1Cc2c(-c3ccccn3)ccc(F)c2-c2c(O)ccc(C)c21 (stereo not shown) [Compound A10] | significant loss of potency | 
4 | CC(=O)OCC1Cc2c(-c3ccccn3)ccc(Br)c2-c2c(O)ccc(C)c21 (stereo not shown) [Compound A12] | significant loss of potency | 
5 | CC(=O)OCC1Cc2c(-c3ncccc3C)cccc2-c2c(O)ccc(C)c21 (stereo not shown) [Compound A15] | comparable inhibitory activities with A1 | 
6 | CC(=O)OCC1Cc2c(-c3cc(C)ccn3)cccc2-c2c(O)ccc(C)c21 (stereo not shown) [Compound A16] | comparable inhibitory activities with A1 | 
7 | CC(=O)OCC1Cc2c(-c3ccc(F)cn3)cccc2-c2c(O)ccc(C)c21 (stereo not shown) [Compound A18] | comparable inhibitory activities with A1 | 
8 | CC(=O)OCC1Cc2c(-c3ccc(Cl)cn3)cccc2-c2c(O)ccc(C)c21 (stereo not shown) [Compound A19] | increased inhibitory activities | 
9 | CC(=O)OCC1Cc2c(-c3ccc(Br)cn3)cccc2-c2c(O)ccc(C)c21 (stereo not shown) [Compound A20] | increased inhibitory activities | 
10 | CC(=O)OCC1Cc2c(cccc2-c2nccc3ccccc23)-c2c(O)ccc(C)c21 (stereo not shown) [Compound A21] | increased inhibitory activities | 
11 | CC(=O)OCC1Cc2c(-c3cc4ccccc4cn3)cccc2-c2c(O)ccc(C)c21 (stereo not shown) [Compound A22] | increased inhibitory activities | 
12 | CC(=O)OCC1Cc2c(-c3ccc4ccccc4n3)cccc2-c2c(O)ccc(C)c21 (stereo not shown) [Compound A23] | increased inhibitory activities | 
13 | CC(=O)OCC1Cc2c(-c3ncccn3)cccc2-c2c(O)ccc(C)c21 (stereo not shown) [Compound A24] | no inhibitory activity | 
14 | CC(=O)OCC1Cc2c(-c3ccncn3)cccc2-c2c(O)ccc(C)c21 (stereo not shown) [Compound A25] | no inhibitory activity | 
15 | CC(=O)OCC1Cc2c(cccc2-n2cccn2)-c2c(O)ccc(C)c21 (stereo not shown) [Compound A26] | no inhibitory activity | 
16 | CC(=O)OCC1Cc2c(cccc2-c2ncnc3c2ncn3CC2CC2)-c2c(O)ccc(C)c21 (stereo not shown) [Compound A27] | no inhibitory activity | 
17 | C=CCn1cnc2c(-c3cccc4c3CC(COC(C)=O)c3c(C)ccc(O)c3-4)ncnc21 (stereo not shown) [Compound A28] | no inhibitory activity | 
18 | OCC1Cc2c(-c3cc(-c4ccccc4)ccn3)cccc2-c2c(O)ccc(-c3ccc(Br)cc3)c21 (stereo not shown) [Compound C1, 1-(4-bromophenyl)-10-(hydroxymethyl)-8-(4-phenylpyridin-2-yl)-9,10-dihydrophenanthren-4-ol] |  | Inhibition mode (SARS-CoV-2 3CL^pro [2]): Mixed; inhibition manner (SARS-CoV-2 3CL^pro [2]): mixed-inhibition; gastrointestinal stability in SGF and SIF [3]: good gastrointestinal stabilities; plasma stability, in words [4]: prominent; also recorded: excellent plasma stability; inhibitory effects against CYPs (major CYPs in HLMs): moderate inhibitory effects; metabolism by human cytochrome P450 enzymes (hCYPs), in words [5]: hardly metabolized; metabolism by human hepatic UDP-glucuronosyltransferases (hUGTs), in words [6]: hardly metabolized
19 | O=Cc1ccnc(-c2cccc3c2CC(CO)c2c(-c4ccc(Br)cc4)ccc(O)c2-3)c1 (stereo not shown) [Compound C2, 2-(8-(4-bromophenyl)-5-hydroxy-9-(hydroxymethyl)-9,10-dihydrophenanthren-1-yl)isonicotinaldehyde] |  | Inhibition mode (SARS-CoV-2 3CL^pro [2]): Mixed; inhibition manner (SARS-CoV-2 3CL^pro [2]): mixed-inhibition; gastrointestinal stability in SGF and SIF [3]: good gastrointestinal stabilities; metabolism by human cytochrome P450 enzymes (hCYPs), in words [5]: readily metabolized; metabolism by human hepatic UDP-glucuronosyltransferases (hUGTs), in words [6]: moderately metabolized
20 | OCC1Cc2c(-c3ccc(F)cn3)cccc2-c2c(O)ccc(-c3ccc(Br)cc3)c21 (stereo not shown) [Compound C4, 1-(4-bromophenyl)-8-(5-fluoropyridin-2-yl)-10-(hydroxymethyl)-9,10-dihydrophenanthren-4-ol] | slight decreases in the inhibitory activity | 
21 | OCC1Cc2c(-c3ccc(Cl)cn3)cccc2-c2c(O)ccc(-c3ccc(Br)cc3)c21 (stereo not shown) [Compound C5, 1-(4-bromophenyl)-8-(5-chloropyridin-2-yl)-10-(hydroxymethyl)-9,10-dihydrophenanthren-4-ol] | slight decreases in the inhibitory activity | 
